# Experimental data as given in patent US12667584B2, “Adenosine analog and its use in regulating the circadian clock” (NATIONAL INSTITUTE OF BIOLOGICAL SCIENCES, BEIJING, priority 2017, dated 2026).
# How the values were obtained:
# [1] = tested on: Per2-Luc reporter U2OS cells (D15); assay: Circadian phase shift cell assay in D15 cells, 384 well plate, Tecan, with or without pentostatin; type: cell-based, human
# [2] = biological target: T1, Ruvbl2, Bmal1, Cry1 and CDK9 interaction (Homo sapiens, UniProt Q9Y230); assay: Co-immunoprecipitation in transfected HEK293T cells; type: cell-based; conditions: 100 μM
# T1 construct: expressed in transfected cells; host or cells: HEK293T
# T1 sequence (Q9Y230 whole entry): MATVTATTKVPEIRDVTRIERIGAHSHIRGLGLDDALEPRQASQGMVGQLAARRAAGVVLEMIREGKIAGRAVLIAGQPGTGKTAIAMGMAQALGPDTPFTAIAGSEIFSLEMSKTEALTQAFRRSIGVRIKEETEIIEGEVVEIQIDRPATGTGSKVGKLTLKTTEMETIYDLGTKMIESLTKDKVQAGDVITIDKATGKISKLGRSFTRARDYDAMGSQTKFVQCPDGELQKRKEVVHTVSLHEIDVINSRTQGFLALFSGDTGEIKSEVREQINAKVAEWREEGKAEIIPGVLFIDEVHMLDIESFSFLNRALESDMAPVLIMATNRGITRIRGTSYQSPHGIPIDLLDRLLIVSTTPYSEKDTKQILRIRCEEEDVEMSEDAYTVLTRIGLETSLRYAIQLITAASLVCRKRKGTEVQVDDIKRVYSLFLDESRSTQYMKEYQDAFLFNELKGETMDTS
# Protocol: Biotinylated Compounds Pull-down, SPR analysis and Immunoprecipitation: The interaction between biotinylated compounds and their target proteins were proceeded as follow. Every 10^8 unsynchronized U2OS cells were collected, homogenized into 2 ml lysis buffer (25 mM MOPS pH7.2, 15 mM EGTA, 15 mM MgCl2, 1 mM DTT, 60 mM β-glycerophosphate, 1 mM Na3VO4, 1 mM NaF, 1 mM phenyl phosphate, Complete Protease Inhibitor Cocktail), and sonicated 6 times for 30 s at 4° C. with a Diagenode bioruptor. After sonication, NP-40 (final 0.5%) was added, incubated 15 min on ice, centrifuged at full speed for 20 min at 4° C. The resultant supernatant was firstly incubated with Pentostatin (final concentration at 5 μg/ml) for 2 h at 4° C. with rotation, and then split into 4 groups. 200 pmol cordycepin, 200 pmol DRB, and DMSO (2 groups, final 0.1%) was added respectively and further incubated for 1 h. […] The eluted protein was analyzed with western blot. The binding affinity of cordycepin against the RUVBL2 protein was measured via SPR technology using a Biacore T200 instrument (GE Healthcare) at room temperature. […] The binding kinetics and binding affinity of cordycepin against the RUVBL2 protein were determined with BIA evaluation software (GE healthcare). […] Immunoprecipitated protein complex was then washed 3 times with IP lysis buffer, boiled and analyzed with western blot. […]
compound,measurement,setting,value
"Nc1ncnc2c1ncn2[C@@H]1O[C@H](CO)C[C@H]1O [Cordycepin, 3′-deoxy-adenosine]",concentration of eliciting 12 h phase shift (potency),[1]; pentostatin containing medium (5 μg/ml),0.2 µM
same,concentration of eliciting 12 h phase shift (potency),"[1]; pentostatin containing medium (5 μg/ml), listed as cordycepin",0.18 µM
same,concentration of eliciting 12 h phase shift (potency),[1]; without pentostatin,25 µM
same,"interaction between Ruvbl2 and Bmal1, or Cry1 with Bmal1",[2],can be disassociated
same,interaction between Ruvbl2 with Cry1 or CDK9,[2],is not disassociated
